Test results taken from US9512142B2, “Tricyclic triazolic compounds” (LABORATORIOS DEL DR. ESTEVE S.A., priority 2013, dated 2016).
Like-named read-outs stand apart in the source and are kept apart here.

Key:
[1] = target: T1, human sigma 1 receptor (Homo sapiens, UniProt Q99720); test: Human sigma 1 receptor radioligand assay ([3H](+)-pentazocine, transfected HEK-293 membranes); format: binding; conditions: 5 nM [3H](+)-pentazocine, transfected HEK-293 membranes, 37° C., 120 minutes; read-out: Ki
T1 construct: expressed in transfected cells; host or cells: HEK-293
Protocol: Human Sigma 1 Receptor Radioligand Assay
The assay was carried out with 7 μg of membrane suspension, 5 nM of [^3H](+)-pentazocine in either absence or presence of either buffer or 10 μM Haloperidol for total and non-specific binding, respectively. Binding buffer contained Tris-HCl 50 mM at pH 8. Plates were incubated at 37° C. for 120 minutes. After the incubation period, the reaction mix was then transferred to MultiScreen HTS, FC plates (Millipore), filtered and plates were washed 3 times with ice-cold 10 mM Tris-HCL (pH7.4). Filters were dried and counted at approximately 40% efficiency in a MicroBeta scintillation counter (Perkin-Elmer) using EcoScint liquid scintillation cocktail.

[2] = Kinetic solubility; format: physicochemical; conditions: kinetic from dmso stock, buffered aqueous solution at pH=7.4, 10 μL of 10 mM DMSO solution in 1 mL, stirred 4 hours, supernatant by liquid chromatography, read-out: Kin. Solub.
Protocol: To a buffered aqueous solution at pH=7.4 (1 mL), a 10 mM DMSO solution of the test compound (10 μL) was added and the mixture stirred for 4 hours. After centrifugation, the compound concentration in the supernatant was determined by liquid chromatography by fitting in a calibration curve of the compound.

[3] = buffered aqueous solution, pH 7.4, aqueous buffer

T1 sequence (Q99720 whole entry): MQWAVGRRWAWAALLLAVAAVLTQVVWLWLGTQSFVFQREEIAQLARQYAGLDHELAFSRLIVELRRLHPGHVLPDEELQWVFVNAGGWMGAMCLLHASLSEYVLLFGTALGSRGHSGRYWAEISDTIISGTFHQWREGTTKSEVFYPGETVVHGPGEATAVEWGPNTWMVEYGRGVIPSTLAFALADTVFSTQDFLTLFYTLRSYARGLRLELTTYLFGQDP

Cl.FC(F)(F)c1ccc(-c2nnn3c2CO[C@H]2CN(C4CCOCC4)C[C@@H]23)c(Cl)c1 [Example 55, (5aS,8aS)-3-(2-chloro-4-(trifluoromethyl)phenyl)-7-(tetrahydro-2H-pyran-4-yl)-4,5a,6,7,8,8a-hexahydropyrrolo[3,4-b][1,2,3]triazolo[1,5-d][1,4]oxazine hydrochloride]
Ki [1]: 23.3 nM | solubility at 4 h ([2]; aqueous buffer): > 10 µM

Cl.Clc1ccc(-c2nnn3c2CO[C@H]2CN(C[C@@H]4CCOC4)C[C@@H]23)c(Cl)c1 [Example 56, (5aS,8aS)-3-(2,4-dichlorophenyl)-7-(((S)-tetrahydrofuran-3-yl)methyl)-4,5a,6,7,8,8a-hexahydropyrrolo[3,4-b][1,2,3]triazolo[1,5-d][1,4]oxazine hydrochloride]
Ki [1]: 22.7 nM | solubility at 4 h [2, 3]: > 10 µM

Cl.Clc1ccc(-c2nnn3c2CO[C@@H]2CN(C[C@H]4CCOC4)C[C@H]23)c(Cl)c1 [Example 57, (5aR,8aR)-3-(2,4-dichlorophenyl)-7-(((R)-tetrahydrofuran-3-yl)methyl)-4,5a,6,7,8,8a-hexahydropyrrolo[3,4-b][1,2,3]triazolo[1,5-d][1,4]oxazine hydrochloride]
Ki [1]: 195 nM | solubility at 4 h [2, 3]: > 10 µM

Cl.Clc1ccc(-c2nnn3c2CO[C@H]2CN(C[C@H]4CCOC4)C[C@@H]23)c(Cl)c1 [Example 58, (5aS,8aS)-3-(2,4-dichlorophenyl)-7-(((R)-tetrahydrofuran-3-yl)methyl)-4,5a,6,7,8,8a-hexahydropyrrolo[3,4-b][1,2,3]triazolo[1,5-d][1,4]oxazine hydrochloride]
Ki [1]: 25.4 nM | solubility at 4 h [2, 3]: > 10 µM

Cl.Clc1ccc(-c2nnn3c2CO[C@@H]2CN(C[C@@H]4CCOC4)C[C@H]23)c(Cl)c1 [Example 59, (5aR,8aR)-3-(2,4-dichlorophenyl)-7-(((S)-tetrahydrofuran-3-yl)methyl)-4,5a,6,7,8,8a-hexahydropyrrolo[3,4-b][1,2,3]triazolo[1,5-d][1,4]oxazine hydrochloride]
Ki [1]: 181 nM | solubility at 4 h [2, 3]: > 10 µM

Cc1occc1CN1C[C@@H]2[C@@H](C1)OCc1c(-c3ccc(F)cc3F)nnn12.Cl [Example 60, (5aR,8aR)-3-(2,4-difluorophenyl)-7-((2-methylfuran-3-yl)methyl)-4,5a,6,7,8,8a-hexahydropyrrolo[3,4-b][1,2,3]triazolo[1,5-d][1,4]oxazine hydrochloride]
Ki [1]: 102 nM | solubility at 4 h [2, 3]: > 10 µM

Cc1occc1CN1C[C@@H]2OCc3c(-c4ccc(F)cc4F)nnn3[C@H]2C1.Cl [Example 61, (5aS,8aS)-3-(2,4-difluorophenyl)-7-((2-methylfuran-3-yl)methyl)-4,5a,6,7,8,8a-hexahydropyrrolo[3,4-b][1,2,3]triazolo[1,5-d][1,4]oxazine hydrochloride]
Ki [1]: 73.7 nM | solubility at 4 h [2, 3]: > 10 µM

Cl.Fc1ccc(-c2nnn3c2CO[C@H]2CN(Cc4ccoc4)C[C@@H]23)c(F)c1 [Example 62, (5aS,8aS)-3-(2,4-difluorophenyl)-7-(furan-3-ylmethyl)-4,5a,6,7,8,8a-hexahydropyrrolo[3,4-b][1,2,3]triazolo[1,5-d][1,4]oxazine hydrochloride]
Ki [1]: 39.2 nM | solubility at 4 h [2, 3]: > 10 µM

Cl.Fc1ccc(-c2nnn3c2CO[C@@H]2CN(Cc4ccoc4)C[C@H]23)c(F)c1 [Example 63, (5aR,8aR)-3-(2,4-difluorophenyl)-7-(furan-3-ylmethyl)-4,5a,6,7,8,8a-hexahydropyrrolo[3,4-b][1,2,3]triazolo[1,5-d][1,4]oxazine hydrochloride]
Ki [1]: 37.7 nM | solubility at 4 h [2, 3]: > 10 µM

Cl.Cn1nccc1-c1nnn2c1CO[C@@H]1CN(Cc3ccc(F)cc3)C[C@H]12 [Example 66, (5aR,8aR)-7-(4-fluorobenzyl)-3-(1-methyl-1H-pyrazol-5-yl)-4,5a,6,7,8,8a-hexahydropyrrolo[3,4-b][1,2,3]triazolo[1,5-d][1,4]oxazine hydrochloride]
Ki [1]: 138 nM | solubility at 4 h ([2]; aqueous buffer): > 10 µM
